Assay results as given in US9163032B2, “Esters of DCPLA and methods of treatment using the same” (Blanchette Rockefeller Neurosciences Institute, priority 2011, dated 2015).

Columns and labels:
synaptophysin = assay: Synaptophysin expression in primary hippocampal neurons (immunofluorescence, Western Blot); format: cell-based, rat
Description: Cells were grown in two chambered slides (Nunc, USA) at low density. For immunofluorescence staining, the cells were washed with PBS (pH 7.4) and fixed with 4% paraformaldehyde for 4 min. Following fixation, the cells were blocked and permeabilized with 5% serum and 0.3% Triton X-100 in 1×PBS for 30 min. Cells were washed three times with 1×PBS and incubated with primary antibodies for 1 hr at 1:100 dilution. After the incubation, the slides were again washed three times in 1×PBS and were incubated with the FITC anti-mouse IgG and Rhodamine anti-rabbit IgG for 1 hr at 1:400 dilution. The cells were further washed and stained with DAPI (4′,6-diamidino-2′-phenylindole, dihydrochloride) (Thermo Scientific, USA) to stain the nucleus. Finally, the slides were washed and mounted in Pro Long Gold antifade mounting solution (Invitrogen, USA) and were viewed under a LSM 710 Meta confocal microscope (Zeiss) at 350 nm, 490 nm, and 540 nm excitation and 470 nm, 525 nm, and 625 nm emission for DAPI, FITC, and Rhodamine respectively. Six individual fields at 63× oil lens magnification were analyzed for the mean fluorescence intensity (MFI) in each channel.
(§1) Cells were harvested in homogenizing buffer containing 10 mM Tris-Cl (pH 7.4), 1 mM PMSF (phenylmethylsulfonyl fluoride), 1 mM EGTA, 1 mM EDTA, 50 mM NaF, and 20 μM leupeptin, and were lysed by sonication. The homogenate was centrifuged at 100,000×g for 15 min at 4° C. to obtain the cytosolic fraction (supernatant) and membrane (pellet). The pellet was resuspended in the homogenizing buffer by sonication. For whole cell protein isolation from primary neurons, the homogenizing buffer contained 1% Triton X-100. Protein concentration was measured using the Coomassie Plus (Bradford) Protein Assay kit (Pierce, USA). Following quantification, 20 μg of protein from each sample was subjected to SDS-PAGE analysis in a 4-20% gradient Tris-Glycine gel (Invitrogen, USA). The separated protein was then transferred to a nitrocellulose membrane. The membrane was blocked with 5% BSA at room temperature for 15 min and was incubated with primary antibody overnight at 4° C. After the incubation, it was washed three times with TBS-T (Tris Buffered Saline-Tween 20) and further incubated with alkaline phosphatase conjugated secondary antibody (Jackson Immunoresearch Laboratories, USA) at 1:10000 dilution for 45 min. The membrane was finally washed three times with TBS-T and developed using the 1-step NBT-BCIP substrate (Pierce, USA). The blot was imaged in an ImageQuant RT-ECL (GE Life Sciences, Piscataway, N.J.) and densitometric quantification was performed using IMAL software (Blanchette Rockefeller Neurosciences Institute, Morgantown, W. Va.). For translocation assays, PKC activation was represented as the percentage of total protein in the membrane (membrane/cytosol+membrane).
To estimate the synaptic damage caused by the ASPDs on primary hippocampal neurons, the expression of synaptophysin (a presynaptic marker) and PSD-95 (a postsynaptic marker) was measured by immunofluorescence staining. […] Following a 20 hr incubation period, the cells were stained for nucleus, PSD-95, and synaptophysin. Expression levels were calculated as the change of percentage in mean fluorescence intensity compared to untreated cells.
Primary neurons, treated and untreated, were immunostained for MAP-2, synaptophysin, and PSD-95 to determine the synaptic integrity. […] Following a 20 hr incubation period, the cells were stained for MAP-2, PSD-95, and synaptophysin as described above.

GSK-3β = assay: Phospho GSK-3β (Ser-9) Western Blot in ASPD treated primary neurons; format: cell-based, rat
Description: Phospho GSK-3β expression was normalized against total GSK-3β expression. […] Data are represented as mean±SEM. (Student's t test *.p<0.05; and **, p<0.005 n=3).
as §1, with “After the incubation, it was washed three times with TBS-T (Tris Buffered Saline-Tween 20) and further incubated with alkaline phosphatase conjugated secondary antibody (Jackson Immunoresearch Laboratories, USA) at 1:10000 dilution for 45 min. The membrane was finally washed three times with TBS-T and developed using the 1-step NBT-BCIP substrate (Pierce, USA).” left out, “For translocation assays, PKC activation was represented as the percentage of total protein in the membrane (membrane/cytosol+membrane).” left out

PKC-α = PKC-α (Homo sapiens, UniProt P17252); assay: PKC activation assay with purified PKC-α isozyme; format: biochemical
Description: For measurement of PKC activation by DCPLA-ME, activation of recombinant PKC-α, PKC-ε, and PKC-δ was evaluated. DCPLA-ME induced activation was measured in the absence of diacylglycerol (DAG) and phosphatidylserine (PS) as described earlier. See Nelson, T. J. et al., J. Biol. Chem., 2009, 284: 34514-34521, and Kanno, T. et al., J. Cell Physiol., 2009, 221: 183-188. Individual enzymes were incubated for 15 min at 37° C. in the presence of 10 μM histones, 4.89 mM CaCl2, 10 mM MgCl2, 20 mM HEPES (pH 7.4), 0.8 mM EDTA, 4 mM EGTA, 4% glycerol, 8 μg/ml aprotinin, 8 μg/ml leupeptin, 2 mM benzamidine, and 0.5 μCi of [γ-^32P]ATP. Purified PKC-α, PKC-ε and PKC-δ were preincubated with DCPLA-ME for 5 min at room temperature. [^32P]-Phosphoprotein formation was measured by adsorption onto phosphocellulose.
To measure PKC, 10 μl of cell homogenate or purified PKC isozyme was incubated for 15 min at 37° C. in the presence of 10 μM histones, 4.89 mM CaCl2, 1.2 μg/μl phosphatidyl-L-serine, 0.18 μg/μl 1,2-dioctanoyl-sn-glycerol, 10 mM MgCl2, 20 mM HEPES (pH 7.4), 0.8 mM EDTA, 4 mM EGTA, 4% glycerol, 8 μg/ml aprotinin, 8 μg/ml leupeptin, and 2 mM benzamidine. [γ32P]ATP (0.5 μCi) was added and 32P-phosphoprotein formation was measured by adsorption onto phosphocellulose as described previously. […]
PKC activity of each compound was measured in the absence of diacylglycerol and phosphatidyl-L-serine and PKC-δ and PKC-ε were measured in the absence of added EGTA and CaCl2, as described by Kanno et al., J. Lipid Res., 2006, 47: 1146-1156. […] To determine their PKC isozyme specificity, the compounds were pre-incubated with purified isoforms of PKC for five minutes and the PKC activity was measured radiometrically.
The activation and PKC isozyme specificity of DCPLA-ethyl ester was measured following the procedures in Example 1(B) and (C), except that 9 ng of the purified isozyme was used and it was pre-incubated for 5 minutes at room temperature (FIG. 3). PKC-ε activation by DCPLA-tert-butyl ester and DCPLA-retinyl ester was measured in the same manner as DCPLA-ethyl ester (FIG. 3).

Row | Compound | synaptophysin mean fluorescence intensity (synaptophysin; 50 nM ASPD, 20 hr) | synaptophysin mean fluorescence intensity (synaptophysin; 50 nM ASPD, 20 hr, listed as ASPDs) | decrease in synaptophysin intensity (synaptophysin; 50 nM, 20 hr) [%] | decrease of synaptophysin expression (Western Blot) (synaptophysin; ASPD) [%] | synaptophysin expression (Western Blot) (synaptophysin; ASPD, relative to control) [%] | GSK-3β activation state (GSK-3β; ASPD 50 nM) | effect on PKC-α (PKC-α) | synaptophysin mean fluorescence intensity (synaptophysin; 50 nM ASPD + 100 nM DCPLA-ME, 20 hr) | phosphorylation of the Ser-9 residue of GSK-3β (GSK-3β; ASPD (50 nM) + DCPLA-ME (100 nM))
1 | ASPD: Amylospheroids from Aβ1-42, 100 kDa filter retentate, containing 39 monomers on average | 63.3±3.8 % of control | 62.45±6.74 % of control | 40 | 26 | 73.30 | activated GSK-3β | – | – | –
2 | CCCCCC1CC1CC1CC1CCCCCCCC(=O)OC (stereo not drawn) [DCPLA-ME, DCPLA methyl ester] | – | – | – | – | – | – | did not have a major effect | 87.48±3.75 % of control | restored phosphorylation of the Ser-9 residue of GSK-3β to normal levels
